In ChEMBL document CHEMBL3271972, “Potentiation of the estrogenic activity of stilbestrol by spiro (cyclohexane-1,2'-indan)-1',4-dione” (1976):

Key:
Format in all cases: functional
Mus musculus [1] = experiment: Potentiation of stilbestrol-induced estrogenic activity in albino ICI mouse assessed as uterus weight at 0.1 ug, sc qd for 3 days (reference value: 28 +/- 2 mg)
Mus musculus [2] = experiment: Estrogenic activity in albino ICI mouse assessed as uterus weight at 100 ug, sc qd for 3 days (reference value: 28 +/- 2 mg)
Mus musculus [3] = experiment: Estrogenic activity in albino ICI mouse assessed as body […] ratio at 100 ug, sc qd for 3 days (reference value: 232.2 +/- 10.4)
Mus musculus [4] = experiment: Potentiation of stilbestrol-induced estrogenic activity in albino ICI mouse assessed as uterus weight at 100 ug, sc qd for 3 days (reference value: 28 +/- 2 mg)
Mus musculus [5] = experiment: Potentiation of stilbestrol-induced estrogenic activity in albino ICI mouse assessed as body weight at 100 ug, sc qd for 3 days (reference value: 12.1 +/- 0.7 gram)
Mus musculus [6] = experiment: Potentiation of stilbestrol-induced estrogenic activity in albino ICI mouse assessed as body weight at 0.1 ug, sc qd for 3 days (reference value: 12.1 +/- 0.7 gram)
Mus musculus [7] = experiment: Estrogenic activity in albino ICI mouse assessed as body weight at 100 ug, sc qd for 3 days (reference value: 12.1 +/- 0.7 gram)
Mus musculus [8] = experiment: Potentiation of stilbestrol-induced estrogenic activity in albino ICI mouse assessed as body […] ratio at 0.1 ug, sc qd for 3 days (reference value: 232.2 +/- 10.4)
Mus musculus [9] = experiment: Potentiation of stilbestrol-induced estrogenic activity in albino ICI mouse assessed as body […] ratio at 100 ug, sc qd for 3 days (reference value: 232.2 +/- 10.4)
Mus musculus [10] = experiment: Estrogenic activity in albino ICI mouse assessed as body weight at 0.1 ug, sc qd for 3 days (reference value: 12.1 +/- 0.7 gram)
Mus musculus [11] = experiment: Estrogenic activity in albino ICI mouse assessed as uterus weight at 0.1 ug, sc qd for 3 days (reference value: 28 +/- 2 mg)
Mus musculus [12] = experiment: Estrogenic activity in albino ICI mouse assessed as body […] ratio at 0.1 ug, sc qd for 3 days (reference value: 232.2 +/- 10.4)

O=C1CCC2(CC1)Cc1ccccc1C2=O
Activity (Mus musculus [1]): 145 mg
Activity (Mus musculus [2]): 28.3 mg
Ratio (Mus musculus [3]): 212.7
Activity (Mus musculus [4]): 192.3 mg
Activity (Mus musculus [5]): 14.1 g
Activity (Mus musculus [6]): 15.2 g
Activity (Mus musculus [7]): 13.3 g
Ratio (Mus musculus [8]): 957.1
Ratio (Mus musculus [9]): 1366.9
Activity (Mus musculus [10]): 14.1 g
Activity (Mus musculus [11]): 35.5 mg
Ratio (Mus musculus [12]): 252

CC/C(=C(/CC)c1ccc(O)cc1)c1ccc(O)cc1 [DIETHYLSTILBESTROL]
Activity (Mus musculus [10]): 16.8 g
Activity (Mus musculus [11]): 148 mg
Ratio (Mus musculus [12]): 882
